Experimental findings from patent US9212196B2, “Hypophosphorous acid derivatives having antihyperalgic activity and biological applications thereof” (UNIVERSITE PARIS DESCARTES, priority 2011, dated 2015) are described below.

Structures can show the parent of a compound that is named as a salt.

Type in all cases: cell-based
Experiment [1] has as its target mGlu8 (Homo sapiens (Human), UniProt O00222). The experiment can be described thus: Agonist activity on mGlu8 in transfected HEK293 cells, intracellular calcium release (Fluo4-AM). To be noted: for mGlu8/4 EC50 ratio: ratio of mGlu8 EC50 to mGlu4 EC50; for EC50: transfected cells, calcium release, read-out: mGlu8 EC50 μM (n). From the text: (§1) The EC50's are compared to those of L-AP4 (L-2-amino-4-phosphonobutyric acid) used as a reference.
(§2) Metabotropic glutamate receptors were transiently transfected in HEK293 cells by electroporation as described elsewhere (Brabet I. et al., 1998) and plated in 96-well microplates. The high affinity glutamate transporter EAAC1 was co-transfected with the receptor in order to avoid any influence of glutamate released by the cells in the assay medium. In the experiments carried out by the inventors, Group-III mGluRs were co-transfected with a chimeric G-protein which couples the activation of the receptor to the phospholipase-C (PLC) pathway. Thus receptor activation induces production of inositol phosphate (IP) which in turn induces intracellular Ca^2+ release. Receptor activity was then determined by measurement of the IP production or Ca release as already described (Goudet C. et al., PNAS 2004). For intracellular calcium measurements, cells expressing mGluRs were loaded with Ca2+-sensitive fluorescent dye Fluo-4 AM (Invitrogen, Cergy-Pontoise, France) dissolved in Hanks' balanced salt solution (HBSS, Invitrogen, Cergy-Pontoise, France) containing 2.5 mM Probenicid (Sigma-Aldrich Chemie, Saint-Quentin Fallavier, France) for 1 h at 37° C., then washed and incubated with HBSS containing probenecid. A drug plate was prepared with the various concentrations of agonist to be tested and drug solution was added in each well after 20 s of recording. Fluorescence signals (excitation 485 nm, emission 525 nm) were measured by using the fluorescence microplate reader Flexstation III (Molecular Devices, Saint-Grégoire, France) at sampling intervals of 1.5 s for 60 s. All points are realized in triplicate.
(§3) The dose-response curves were fitted using the GraphPad Prism program and the following equation: y=[(ymax−ymin)/(1+(x/EC50)n)]+ymin where EC50 is the concentration of the compound necessary to obtain the half maximal effect and n is the Hill coefficient.
(A change in cytosolic calcium serves as a functional read-out for many receptors and channels.)

Experiment [2] has as its target mGlu4 (Homo sapiens (Human), UniProt Q14833). The experiment can be described thus: Agonist activity on mGlu4 in transfected HEK293 cells, intracellular calcium release (Fluo4-AM). To be noted: transfected cells, calcium release; read-out: mGlu4 EC50 μM (n).
From the text: as §1, §2, §3

Experiment [3] concerns mGlu7. The experiment can be described thus: Agonist activity on mGlu7 in transfected HEK293 cells, intracellular calcium release (Fluo4-AM). To be noted: ratio of mGlu7 EC50 to mGlu4 EC50.
From the text: as §1, §2, §3

For experiment [4], the target named is mGlu7 (Homo sapiens (Human), UniProt Q14831). Described as above. To be noted: transfected cells, calcium release; read-out: mGlu7 EC50 μM (n).
Sequence of mGlu7 (Homo sapiens (Human), UniProt Q14831) (Q14831 35-915): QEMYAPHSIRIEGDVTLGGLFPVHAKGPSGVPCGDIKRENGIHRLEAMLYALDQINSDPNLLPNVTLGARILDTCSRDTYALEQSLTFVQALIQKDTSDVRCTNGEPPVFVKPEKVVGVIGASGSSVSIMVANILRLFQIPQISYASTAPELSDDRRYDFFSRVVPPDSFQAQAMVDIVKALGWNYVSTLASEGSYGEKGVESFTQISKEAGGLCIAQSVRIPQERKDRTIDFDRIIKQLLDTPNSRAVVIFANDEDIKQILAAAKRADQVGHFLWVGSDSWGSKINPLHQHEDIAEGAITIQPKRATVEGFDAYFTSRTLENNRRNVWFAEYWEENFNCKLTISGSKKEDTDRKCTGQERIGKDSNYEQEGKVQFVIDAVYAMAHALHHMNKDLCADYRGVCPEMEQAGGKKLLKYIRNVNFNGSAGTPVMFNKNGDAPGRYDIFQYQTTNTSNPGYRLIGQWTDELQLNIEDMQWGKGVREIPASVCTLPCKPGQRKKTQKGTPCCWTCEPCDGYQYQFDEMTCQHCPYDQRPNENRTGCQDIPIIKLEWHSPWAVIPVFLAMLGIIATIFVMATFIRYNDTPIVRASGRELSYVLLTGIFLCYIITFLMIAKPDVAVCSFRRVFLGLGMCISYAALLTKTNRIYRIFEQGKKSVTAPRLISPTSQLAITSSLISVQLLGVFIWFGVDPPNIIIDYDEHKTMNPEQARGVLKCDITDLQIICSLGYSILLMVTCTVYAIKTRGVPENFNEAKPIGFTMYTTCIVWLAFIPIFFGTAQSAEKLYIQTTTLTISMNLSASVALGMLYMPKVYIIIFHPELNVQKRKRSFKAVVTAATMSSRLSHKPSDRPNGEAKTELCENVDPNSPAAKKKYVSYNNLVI
From the text: as §1, §2, §3

Sequence of mGlu4 (Q14833 33-912): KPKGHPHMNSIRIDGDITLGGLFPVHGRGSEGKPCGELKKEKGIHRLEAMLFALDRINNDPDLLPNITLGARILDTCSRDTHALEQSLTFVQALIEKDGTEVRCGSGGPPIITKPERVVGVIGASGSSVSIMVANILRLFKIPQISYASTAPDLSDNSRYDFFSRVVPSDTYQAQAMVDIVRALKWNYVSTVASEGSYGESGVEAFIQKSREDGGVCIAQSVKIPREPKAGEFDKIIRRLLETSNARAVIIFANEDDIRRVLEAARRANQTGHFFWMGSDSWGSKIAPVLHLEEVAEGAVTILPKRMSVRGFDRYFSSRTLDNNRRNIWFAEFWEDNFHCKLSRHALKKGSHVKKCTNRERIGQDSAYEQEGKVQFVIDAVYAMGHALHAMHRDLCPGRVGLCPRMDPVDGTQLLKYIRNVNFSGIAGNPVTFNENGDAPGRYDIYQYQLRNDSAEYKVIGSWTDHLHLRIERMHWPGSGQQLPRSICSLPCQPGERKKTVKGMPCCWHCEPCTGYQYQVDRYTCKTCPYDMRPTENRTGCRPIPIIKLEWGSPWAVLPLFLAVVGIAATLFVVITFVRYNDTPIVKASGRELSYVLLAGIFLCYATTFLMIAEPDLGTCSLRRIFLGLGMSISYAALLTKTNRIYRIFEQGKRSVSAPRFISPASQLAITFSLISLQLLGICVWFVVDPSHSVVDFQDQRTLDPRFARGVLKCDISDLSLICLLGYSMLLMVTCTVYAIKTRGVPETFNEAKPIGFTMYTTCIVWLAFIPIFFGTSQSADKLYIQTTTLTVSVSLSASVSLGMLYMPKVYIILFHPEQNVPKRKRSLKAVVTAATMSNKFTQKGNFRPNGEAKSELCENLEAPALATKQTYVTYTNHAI
Sequence of mGlu8 (O00222 34-908): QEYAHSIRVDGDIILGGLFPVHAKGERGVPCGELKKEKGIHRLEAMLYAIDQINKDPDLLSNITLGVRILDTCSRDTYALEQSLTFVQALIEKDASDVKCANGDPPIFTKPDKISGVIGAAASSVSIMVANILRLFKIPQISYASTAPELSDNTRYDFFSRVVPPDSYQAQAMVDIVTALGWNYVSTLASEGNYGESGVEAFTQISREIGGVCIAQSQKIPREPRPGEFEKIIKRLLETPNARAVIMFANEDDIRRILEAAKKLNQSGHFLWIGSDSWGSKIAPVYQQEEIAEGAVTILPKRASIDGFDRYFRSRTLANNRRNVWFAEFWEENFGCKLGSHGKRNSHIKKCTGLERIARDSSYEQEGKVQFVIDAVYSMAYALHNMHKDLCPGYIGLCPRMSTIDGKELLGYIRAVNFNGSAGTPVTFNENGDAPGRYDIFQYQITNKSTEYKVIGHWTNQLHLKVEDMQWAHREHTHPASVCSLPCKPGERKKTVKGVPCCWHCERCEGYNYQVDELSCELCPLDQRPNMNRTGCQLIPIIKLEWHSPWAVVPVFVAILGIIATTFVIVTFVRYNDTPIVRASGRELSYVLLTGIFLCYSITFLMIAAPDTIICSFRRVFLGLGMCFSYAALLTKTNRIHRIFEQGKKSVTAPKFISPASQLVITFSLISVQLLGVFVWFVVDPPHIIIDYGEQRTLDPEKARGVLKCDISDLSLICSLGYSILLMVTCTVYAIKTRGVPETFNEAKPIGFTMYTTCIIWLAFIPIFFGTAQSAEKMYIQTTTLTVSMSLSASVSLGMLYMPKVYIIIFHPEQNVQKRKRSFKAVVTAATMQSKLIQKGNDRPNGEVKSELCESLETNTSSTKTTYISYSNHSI

Turning to `N[C@@H](CCP(=O)(O)C(O)c1ccc(OCC(=O)O)c(OCC(=O)O)c1)C(=O)O` (stereo partly drawn) [Derivative 18, [((3S)-3-Amino-3-carboxy)propyl][(3,4-di(carboxymethoxy)phenyl)hydroxymethyl]phosphinic Acid], in experiment [1], the “mGlu8/4 EC50 ratio” value turned out to be 6 and the EC50 (in general, the concentration at which the effect is half-maximal) turned out to be 14.1 ± 7.3 µM. The EC50 in experiment [2] came out at 2.5 ± 1.1 µM.

Consider `N[C@@H](CCP(=O)(O)C(O)c1ccc(OCC(=O)O)c(C(F)(F)F)c1)C(=O)O` (stereo in doubt) [Derivative 21, 2-amino-4-(((4-(carboxymethoxy)-3-(trifluoromethyl)phenyl)(hydroxy)methyl)(hydroxy)phosphoryl)butanoic acid], for which, in experiment [1], the “mGlu8/4 EC50 ratio” value was 8. In addition, the EC50 in experiment [1] stood at 6.86 ± 1.83 µM; in experiment [4], 35.5 ± 4 µM; in experiment [2], 0.9 ± 0.06 µM. Also, in experiment [3], the “mGlu7/4 EC50 ratio” value stood at 39.

For the molecule `COc1cc(C(O)P(=O)(O)CC[C@H](N)C(=O)O)cc(I)c1OCC(=O)O` (stereo partly shown) [Derivative 8], in experiment [1], the “mGlu8/4 EC50 ratio” value is listed as 193. Also, the EC50 in experiment [1] turned out to be 28 ± 4 µM; in experiment [4], 6.6 ± 1.5 µM; in experiment [2], 0.15 ± 0.03 µM. The “mGlu7/4 EC50 ratio” value in experiment [3] is on record as 44.

With `COc1cc(CP(=O)(O)CC[C@H](N)C(=O)O)cc(F)c1OCC(=O)O` (stereo in doubt) [Derivative 34, 2-amino-4-((4-(carboxymethoxy)-3-fluoro-5-methoxybenzyl)(hydroxy)phosphoryl)butanoic acid], the “mGlu8/4 EC50 ratio” value in experiment [1] is 3. Further, the EC50 in experiment [1] was 9.17 ± 2.37 µM; in experiment [4], 232 ± 85 µM; in experiment [2] it was 3.09 ± 0.62 µM. The “mGlu7/4 EC50 ratio” value in experiment [3] came out at 75.

Regarding `N[C@@H](CCP(=O)(O)C(O)c1ccc(OCC(=O)O)c(OC(F)(F)F)c1)C(=O)O` (stereo in doubt) [Derivative 20, 2-amino-4-(((4-(carboxymethoxy)-3-(trifluoromethoxy)phenyl)(hydroxy)methyl)(hydroxy)phosphoryl)butanoic acid], the “mGlu8/4 EC50 ratio” value in experiment [1] is 927. The EC50 in experiment [1] came out at 55.6 ± 12 µM; in experiment [4] it was 1.97 ± 0.34 µM; in experiment [2], 0.06 ± 0.02 µM. The “mGlu7/4 EC50 ratio” value in experiment [3] is 33.

For the molecule `COc1cc(CP(=O)(O)CC[C@H](N)C(=O)O)ccc1OCC(=O)O` (stereo in doubt) [Derivative 31, 2-amino-4-((4-(carboxymethoxy)-3-methoxybenzyl)(hydroxy)phosphoryl)butanoic acid], in experiment [1], the “mGlu8/4 EC50 ratio” value was over 40 and the EC50 was over 300 µM. In addition, the EC50 in experiment [2] was 7.41 ± 1.55 µM.

For `N[C@@H](CCP(=O)(O)C(O)c1ccc(OCC(=O)O)c(C(=O)O)c1)C(=O)O` (stereo in doubt) [Derivative 23, 5-(((3-amino-3-carboxypropyl)(hydroxy)phosphoryl)(hydroxy)methyl)-2-(carboxymethoxy)benzoic acid], in experiment [1], the “mGlu8/4 EC50 ratio” value was determined as 1.9. The results for the concentration for a half-maximal effect (EC50) in experiment [1], in experiment [4] and in experiment [2] were 7.4 ± 1.2 µM, 65 ± 13 µM and 4 ± 0.6 µM, respectively. Besides, the “mGlu7/4 EC50 ratio” value in experiment [3] worked out at 16.

Consider `N[C@@H](CCP(=O)(O)C(O)c1ccc(SCC(=O)O)cc1)C(=O)O` (stereo in doubt) [Derivative 26, 2-amino-4-(((4-(carboxymethylthio)phenyl)(hydroxy)methyl)(hydroxy)phosphoryl)butanoic acid], for which the “mGlu8/4 EC50 ratio” value in experiment [1] is 5.9. Besides, the EC50 in experiment [1] was determined as 1.23 ± 0.48 µM; in experiment [4], 13 ± 1.1 µM; in experiment [2], 0.21 ± 0.04 µM. In addition, in experiment [3], the “mGlu7/4 EC50 ratio” value amounted to 62.

Turning to `N[C@@H](CCP(=O)(O)C(O)c1cccc(OCC(=O)O)c1)C(=O)O` (stereo partly drawn) [Derivative 17, [((3S)-3-Ammonium-3-carboxy)propyl][(3-(carboxymethoxy)phenyl)hydroxymethyl]phosphinic Acid Hydrochloride], the “mGlu8/4 EC50 ratio” value in experiment [1] (Hydrochloride) is reported as 2.3.

As to `N[C@@H](CCP(=O)(O)C(O)c1cccc(OCC(=O)O)c1)C(=O)O` (stereo partly drawn) [Derivative 16, [((3S)-3-Ammonium-3-carboxy)propyl][(3-(carboxymethoxy)phenyl)hydroxymethyl]phosphinic Acid Hydrochloride], the “mGlu8/4 EC50 ratio” value in experiment [1] (Hydrochloride) is 7.4.

On to `COc1cc(C(O)P(=O)(O)CC[C@H](N)C(=O)O)cc(Cl)c1OCC(=O)O` (stereo partly shown) [Derivative 7], for which the “mGlu8/4 EC50 ratio” value in experiment [1] is 341. The EC50 in experiment [1] stood at 44 ± 7 µM; in experiment [4] it was 11.4 ± 0.1 µM; in experiment [2], 0.13 ± 0.02 µM. Further, the “mGlu7/4 EC50 ratio” value in experiment [3] turned out to be 88.

`N[C@@H](CCP(=O)(O)C(O)c1cccc(OCC(=O)O)c1)C(=O)O` (single isomer, unassigned) [Derivative 16, Hydrochloride]: the EC50 in experiment [1] was 36 ± 18 µM; in experiment [2], 4.9 ± 1 µM.

Consider `COc1cc(CP(=O)(O)CC[C@H](N)C(=O)O)cc(Cl)c1OCC(=O)O` (stereo in doubt) [Derivative 35, 2-amino-4-((4-(carboxymethoxy)-3-chloro-5-methoxybenzyl)(hydroxy)phosphoryl)butanoic acid], for which the “mGlu8/4 EC50 ratio” value in experiment [1] was determined as 6. Besides, the EC50 in experiment [1] was 38.2 ± 7.1 µM; in experiment [4], over 300 µM; in experiment [2], 6.2 ± 0.58 µM. In addition, the “mGlu7/4 EC50 ratio” value in experiment [3] is over 48.

Regarding `N[C@@H](CCP(=O)(O)C(O)c1ccc(OCC(=O)O)c([N+](=O)[O-])c1)C(=O)O` (stereo in doubt) [Derivative 24, 2-amino-4-(((4-(carboxymethoxy)-3-nitrophenyl)(hydroxy)methyl)(hydroxy)phosphoryl)butanoic acid], in experiment [1], the “mGlu8/4 EC50 ratio” value is on record as 6.1. For the same molecule, the results for the EC50 in experiment [1], in experiment [4] and in experiment [2] were 1.59 ± 0.82 µM, 11.2 ± 3.9 µM and 0.26 ± 0.07 µM, respectively. Also, the “mGlu7/4 EC50 ratio” value in experiment [3] is on record as 43.

On to `N[C@@H](CCP(=O)(O)Cc1ccc(OCC(=O)O)c(C(F)(F)F)c1)C(=O)O` (stereo in doubt) [Derivative 33, 2-amino-4-((4-(carboxymethoxy)-3-(trifluoromethyl)benzyl)(hydroxy)phosphoryl)butanoic acid], for which the “mGlu8/4 EC50 ratio” value in experiment [1] came out at 1.6. For the same molecule, the EC50 in experiment [1] is over 100 µM; in experiment [4], 301 ± 73 µM; in experiment [2] it was 62.5 ± 20.5 µM. Moreover, the “mGlu7/4 EC50 ratio” value in experiment [3] is 5.

For the molecule `N[C@@H](CCP(=O)(O)C(O)c1ccc(CCC(=O)O)cc1)C(=O)O` (stereo partly drawn) [Derivative 12, [((3S)-3-Amino-3-carboxy)propyl][(4-(carboxyethyl)phenyl)hydroxymethyl]phosphinic Acid], the “mGlu8/4 EC50 ratio” value in experiment [1] is given as 50. Besides, the EC50 is 48.7 ± 9.6 µM in experiment [1], 37 ± 5 µM in experiment [4] and 0.98 ± 0.18 µM in experiment [2]. Further, the “mGlu7/4 EC50 ratio” value in experiment [3] is listed as 38.

Turning to `COc1cc(C(O)P(=O)(O)CC[C@H](N)C(=O)O)cc(F)c1OCC(=O)O` (stereo partly shown) [Derivative 6], in experiment [1], the “mGlu8/4 EC50 ratio” value turned out to be 129. For the same molecule, the EC50 in experiment [1] is 10.3 ± 1.3 µM; in experiment [4], 3.5 ± 1.3 µM; in experiment [2] it was 0.08 ± 0.02 µM. In experiment [3], the “mGlu7/4 EC50 ratio” value was 44.

As for `N[C@@H](CCP(=O)(O)C(O)c1cc(Cl)c(OCC(=O)O)c(Cl)c1)C(=O)O` (stereo partly shown) [Derivative 9], the “mGlu8/4 EC50 ratio” value in experiment [1] worked out at 484. In addition, the values for the EC50 in experiment [1], in experiment [4] and in experiment [2] were 109 ± 15 µM, 22.9 ± 7.8 µM and 0.38 ± 0.09 µM, respectively. Besides, the “mGlu7/4 EC50 ratio” value in experiment [3] was determined as 60.

Regarding `N[C@@H](CCP(=O)(O)C(O)c1ccc(OCP(=O)(O)O)cc1)C(=O)O` (stereo partly drawn) [Derivative 14, [((3S)-3-Amino-3-carboxy)propyl][(4-phosphonomethoxyphenyl)hydroxymethyl]phosphinic Acid], the “mGlu8/4 EC50 ratio” value in experiment [1] was 303. Moreover, the figures for the EC50 in experiment [1], in experiment [4] and in experiment [2] were 112 ± 46 µM, 34 ± 10 µM and 0.37 ± 0.12 µM, respectively. Moreover, the “mGlu7/4 EC50 ratio” value in experiment [3] is 92.

On to `N[C@@H](CCP(=O)(O)C(O)c1cccc(OCC(=O)O)c1)C(=O)O` (mixture of isomers) [Derivative 15, [((3S)-3-Amino-3-carboxy)propyl][(3-(carboxymethoxy)phenyl)hydroxymethyl]phosphinic Acid], for which the EC50 came to 71 ± 25 µM in experiment [1] and 7.6 ± 2 µM in experiment [2].

For `N[C@@H](CCP(=O)(O)C(O)c1cccc(OCC(=O)O)c1)C(=O)O` (single isomer, unassigned) [Derivative 17, Hydrochloride], the EC50 in experiment [1] is 29.3 ± 7.2 µM; in experiment [2], 13 ± 2.9 µM.

With `N[C@@H](CCP(=O)(O)C(O)c1cccc(OCC(=O)O)c1)C(=O)O` (stereo partly drawn) [Derivative 15, [((3S)-3-Amino-3-carboxy)propyl][(3-(carboxymethoxy)phenyl)hydroxymethyl]phosphinic Acid], the “mGlu8/4 EC50 ratio” value in experiment [1] is on record as 9.4.
